Our source for the IC50 values is BindingDB's records for doi:10.1111/j.1747-0285.2012.01371.x (Korea Research Institute of Chemical Technology, 2012).

SMILES strings stand for the structures.

In the assay the target is 5-lipoxygenase (Rattus norvegicus). In words: 5-LOX enzyme assay was carried out with some modifications of ferric oxidation of xylenol orange (FOX) assay, which is based on the complex formation of Fe3+/ xylenol orange with absorption at visible light. To be noted: pH 7.4.

With `Oc1ccc(Nc2nc(-c3ccc(Br)cc3)cs2)cc1` [N-aryl-4-aryl-1,3-thiazole-2-amine, 4], the IC50 (as a rule, the concentration that inhibits the measured activity by half) amounted to 0.082 µM.

Compound `O=[N+]([O-])c1ccc(-c2csc(Nc3ccc(O)cc3)n2)cc1` [N-aryl-4-aryl-1,3-thiazole-2-amine, 6] gave an IC50 of 0.025 µM.

As for `Oc1ccc(Nc2nc(-c3ccccc3F)cs2)cc1` [N-aryl-4-aryl-1,3-thiazole-2-amine, 7], 0.081 µM corresponded to half-maximal inhibition (IC50).

The compound `Oc1ccc(Nc2nc(-c3cccc(F)c3)cs2)cc1` [N-aryl-4-aryl-1,3-thiazole-2-amine, 8] displayed an IC50 of 0.065 µM.

Consider `Oc1ccc(Nc2nc(-c3cc(Cl)ccc3Cl)cs2)cc1` [N-aryl-4-aryl-1,3-thiazole-2-amine, 11], for which the IC50 stood at 0.092 µM.

In turn, `Oc1ccc(Nc2nc(-c3ccc(F)cc3F)cs2)cc1` [N-aryl-4-aryl-1,3-thiazole-2-amine, 12] yielded an IC50 of 0.085 µM.

As for `Oc1c(Cl)cc(Nc2nc(-c3ccc(Cl)cc3)cs2)cc1Cl` [N-aryl-4-aryl-1,3-thiazole-2-amine, 13], the IC50 is 0.146 µM.

Take `Cc1cc(Nc2nc(-c3ccc(Cl)cc3)cs2)cc(C)c1O` [N-aryl-4-aryl-1,3-thiazole-2-amine, 14]: the IC50 was 0.127 µM.

With `Cc1cc(Nc2nc(-c3ccc(F)cc3)cs2)cc(Cl)c1O` [N-aryl-4-aryl-1,3-thiazole-2-amine, 15], 0.063 µM corresponded to half-maximal inhibition (IC50).

In the case of `Oc1c(Cl)cc(Nc2nc(-c3ccc(F)cc3)cs2)cc1Cl` [N-aryl-4-aryl-1,3-thiazole-2-amine, 16], the IC50 came to 0.093 µM.

The compound `Cc1cc(Nc2nc(-c3ccc(F)cc3)cs2)c(C)cc1O` [N-aryl-4-aryl-1,3-thiazole-2-amine, 17] came in with an IC50 of 0.104 µM.

Compound `Nc1ccc(Nc2nc(-c3ccccc3)cs2)cc1` [N-aryl-4-aryl-1,3-thiazole-2-amine, 24] came in with an IC50 of 0.12 µM.

In turn, `Nc1ccc(Nc2nc(-c3ccc(F)cc3)cs2)cc1` [N-aryl-4-aryl-1,3-thiazole-2-amine, 25] gave an IC50 of 0.105 µM.

In turn, `Nc1ccc(Nc2nc(-c3ccc(Br)cc3)cs2)cc1` [N-aryl-4-aryl-1,3-thiazole-2-amine, 26] had a half-maximal inhibitory concentration (IC50) of 0.201 µM.

On to `Nc1ccc(Nc2nc(-c3ccc([N+](=O)[O-])cc3)cs2)cc1` [N-aryl-4-aryl-1,3-thiazole-2-amine, 28], for which the IC50 came to 0.092 µM.

As for `Nc1ccccc1Nc1nc(-c2ccc(Cl)cc2)cs1` [N-aryl-4-aryl-1,3-thiazole-2-amine, 29], 0.421 µM corresponded to half-maximal inhibition (IC50).

Consider `Nc1ccc(Nc2nc(-c3cc(Cl)ccc3Cl)cs2)cc1` [N-aryl-4-aryl-1,3-thiazole-2-amine, 31], for which inhibition was half-maximal at 0.06 µM (IC50).

`Nc1ccc(Nc2nc(-c3ccc(F)cc3F)cs2)cc1` [N-aryl-4-aryl-1,3-thiazole-2-amine, 32] had an IC50 of 0.07 µM.
